Results from publication PMC8161495 (ACS Central Science, 2021).

Biological target: T1, full-length rat TRPV2 (rTRPV2) (Rattus norvegicus, UniProt Q9WUD2)
T1 sequence (Q9WUD2 1-761): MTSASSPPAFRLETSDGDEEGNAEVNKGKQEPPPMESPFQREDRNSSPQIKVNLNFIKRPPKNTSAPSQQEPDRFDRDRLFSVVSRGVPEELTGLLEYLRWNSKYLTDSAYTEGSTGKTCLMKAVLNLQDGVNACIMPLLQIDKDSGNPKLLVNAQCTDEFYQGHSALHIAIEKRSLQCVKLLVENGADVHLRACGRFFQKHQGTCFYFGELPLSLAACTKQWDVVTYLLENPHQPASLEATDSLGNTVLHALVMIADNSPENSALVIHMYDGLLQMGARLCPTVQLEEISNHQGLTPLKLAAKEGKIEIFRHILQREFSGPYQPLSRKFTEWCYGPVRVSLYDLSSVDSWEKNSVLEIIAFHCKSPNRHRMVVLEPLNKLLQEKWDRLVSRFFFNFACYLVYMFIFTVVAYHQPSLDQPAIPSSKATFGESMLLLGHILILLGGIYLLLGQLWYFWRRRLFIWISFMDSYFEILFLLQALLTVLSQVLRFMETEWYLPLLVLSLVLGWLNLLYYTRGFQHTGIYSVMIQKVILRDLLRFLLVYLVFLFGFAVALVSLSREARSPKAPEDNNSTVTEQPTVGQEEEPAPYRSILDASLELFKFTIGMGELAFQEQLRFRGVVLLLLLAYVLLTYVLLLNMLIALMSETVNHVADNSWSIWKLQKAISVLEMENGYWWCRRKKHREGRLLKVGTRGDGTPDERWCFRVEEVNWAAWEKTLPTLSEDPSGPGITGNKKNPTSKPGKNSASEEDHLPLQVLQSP
Experiment: cryo-EM structure
Format: binding

COc1cc(/C=C/C(=O)N2CCC=CC2=O)cc(OC)c1OC [PL, piperlongumine]
cryo-EM structure (3.5 Å, C4 symmetry): The cryo-EM density map and atomic coordinates of PL-bound rat TRPV2 are deposited
